According to article PMC3344384 (Chemistry & biology, 2011):

Assays:
USP1 alone = target: T1, USP1 alone (Homo sapiens, UniProt O94782); assay: Ub-Rho assay, USP1 alone; assay type: biochemical; conditions: Ub-Rho substrate, absence of UAF1 subunit
T1 sequence (O94782 1-785): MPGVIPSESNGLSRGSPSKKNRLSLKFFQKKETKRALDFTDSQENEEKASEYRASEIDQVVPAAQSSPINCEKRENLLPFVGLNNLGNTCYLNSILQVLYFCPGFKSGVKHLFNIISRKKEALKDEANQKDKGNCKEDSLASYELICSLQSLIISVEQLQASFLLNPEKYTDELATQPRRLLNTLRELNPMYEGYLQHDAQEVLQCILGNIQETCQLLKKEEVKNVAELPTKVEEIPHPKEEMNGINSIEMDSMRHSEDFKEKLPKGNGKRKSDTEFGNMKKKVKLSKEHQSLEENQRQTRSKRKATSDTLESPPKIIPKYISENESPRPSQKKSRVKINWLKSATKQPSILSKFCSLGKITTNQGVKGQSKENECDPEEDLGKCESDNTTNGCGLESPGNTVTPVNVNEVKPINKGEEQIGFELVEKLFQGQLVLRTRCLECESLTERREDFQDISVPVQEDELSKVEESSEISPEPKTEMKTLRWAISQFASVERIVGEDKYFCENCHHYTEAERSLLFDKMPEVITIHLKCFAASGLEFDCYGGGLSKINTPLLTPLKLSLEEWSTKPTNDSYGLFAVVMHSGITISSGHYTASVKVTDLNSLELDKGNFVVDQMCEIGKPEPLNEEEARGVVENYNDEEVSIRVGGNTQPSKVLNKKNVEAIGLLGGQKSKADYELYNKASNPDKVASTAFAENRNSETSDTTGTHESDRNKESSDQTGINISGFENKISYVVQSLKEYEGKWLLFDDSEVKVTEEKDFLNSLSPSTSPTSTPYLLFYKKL

caspase-1 = target: T2, caspase-1 (Homo sapiens, UniProt P29466); assay: cysteine protease selectivity, caspase-1; assay type: biochemical
T2 sequence (P29466 120-297 limits assumed): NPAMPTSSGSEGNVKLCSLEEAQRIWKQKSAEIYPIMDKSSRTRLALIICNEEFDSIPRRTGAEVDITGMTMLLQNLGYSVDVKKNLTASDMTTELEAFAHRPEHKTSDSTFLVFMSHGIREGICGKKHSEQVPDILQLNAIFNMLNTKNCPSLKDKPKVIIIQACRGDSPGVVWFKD
T2 sequence (P29466 317-404 limits assumed): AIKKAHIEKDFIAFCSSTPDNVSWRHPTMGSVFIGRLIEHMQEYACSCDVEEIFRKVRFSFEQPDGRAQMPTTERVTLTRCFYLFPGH

USP7 = USP7 (Homo sapiens, UniProt Q93009); assay: K63-linked diubiquitin cleavage assay, USP7; conditions: for IC50 for USP7, fold higher than that for USP1/UAF1: K63-linked diubiquitin substrate
USP5 = target: T3, USP5 (Homo sapiens, UniProt P45974); assay: K63-linked diubiquitin cleavage assay, USP5; conditions: K63-linked diubiquitin substrate; NI = no significant inhibition at 114 μM
T3 sequence (P45974 1-858): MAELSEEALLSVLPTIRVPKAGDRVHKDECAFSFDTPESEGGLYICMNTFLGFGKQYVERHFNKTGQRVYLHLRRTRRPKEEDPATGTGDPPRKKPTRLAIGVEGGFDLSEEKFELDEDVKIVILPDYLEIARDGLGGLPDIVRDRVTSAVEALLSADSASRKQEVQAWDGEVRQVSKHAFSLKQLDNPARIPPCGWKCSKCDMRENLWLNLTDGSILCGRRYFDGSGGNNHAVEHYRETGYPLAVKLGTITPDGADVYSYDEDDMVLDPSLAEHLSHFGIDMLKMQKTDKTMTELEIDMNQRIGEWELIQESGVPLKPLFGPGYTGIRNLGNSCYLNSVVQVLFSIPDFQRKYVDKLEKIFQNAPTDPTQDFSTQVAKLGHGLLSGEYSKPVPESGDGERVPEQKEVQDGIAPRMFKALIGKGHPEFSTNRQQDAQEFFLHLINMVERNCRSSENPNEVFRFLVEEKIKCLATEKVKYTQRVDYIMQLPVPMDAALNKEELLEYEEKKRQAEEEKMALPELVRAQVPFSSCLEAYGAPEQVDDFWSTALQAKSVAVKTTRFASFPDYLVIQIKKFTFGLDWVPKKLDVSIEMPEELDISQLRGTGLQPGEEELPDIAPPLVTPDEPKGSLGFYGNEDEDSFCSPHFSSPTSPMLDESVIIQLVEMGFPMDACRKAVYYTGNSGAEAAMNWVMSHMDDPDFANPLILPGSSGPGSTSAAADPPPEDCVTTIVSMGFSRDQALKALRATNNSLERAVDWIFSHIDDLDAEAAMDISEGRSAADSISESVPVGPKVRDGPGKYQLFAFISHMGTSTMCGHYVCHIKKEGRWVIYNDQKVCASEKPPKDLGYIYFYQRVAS

Chain of USP7 (Q93009 whole entry): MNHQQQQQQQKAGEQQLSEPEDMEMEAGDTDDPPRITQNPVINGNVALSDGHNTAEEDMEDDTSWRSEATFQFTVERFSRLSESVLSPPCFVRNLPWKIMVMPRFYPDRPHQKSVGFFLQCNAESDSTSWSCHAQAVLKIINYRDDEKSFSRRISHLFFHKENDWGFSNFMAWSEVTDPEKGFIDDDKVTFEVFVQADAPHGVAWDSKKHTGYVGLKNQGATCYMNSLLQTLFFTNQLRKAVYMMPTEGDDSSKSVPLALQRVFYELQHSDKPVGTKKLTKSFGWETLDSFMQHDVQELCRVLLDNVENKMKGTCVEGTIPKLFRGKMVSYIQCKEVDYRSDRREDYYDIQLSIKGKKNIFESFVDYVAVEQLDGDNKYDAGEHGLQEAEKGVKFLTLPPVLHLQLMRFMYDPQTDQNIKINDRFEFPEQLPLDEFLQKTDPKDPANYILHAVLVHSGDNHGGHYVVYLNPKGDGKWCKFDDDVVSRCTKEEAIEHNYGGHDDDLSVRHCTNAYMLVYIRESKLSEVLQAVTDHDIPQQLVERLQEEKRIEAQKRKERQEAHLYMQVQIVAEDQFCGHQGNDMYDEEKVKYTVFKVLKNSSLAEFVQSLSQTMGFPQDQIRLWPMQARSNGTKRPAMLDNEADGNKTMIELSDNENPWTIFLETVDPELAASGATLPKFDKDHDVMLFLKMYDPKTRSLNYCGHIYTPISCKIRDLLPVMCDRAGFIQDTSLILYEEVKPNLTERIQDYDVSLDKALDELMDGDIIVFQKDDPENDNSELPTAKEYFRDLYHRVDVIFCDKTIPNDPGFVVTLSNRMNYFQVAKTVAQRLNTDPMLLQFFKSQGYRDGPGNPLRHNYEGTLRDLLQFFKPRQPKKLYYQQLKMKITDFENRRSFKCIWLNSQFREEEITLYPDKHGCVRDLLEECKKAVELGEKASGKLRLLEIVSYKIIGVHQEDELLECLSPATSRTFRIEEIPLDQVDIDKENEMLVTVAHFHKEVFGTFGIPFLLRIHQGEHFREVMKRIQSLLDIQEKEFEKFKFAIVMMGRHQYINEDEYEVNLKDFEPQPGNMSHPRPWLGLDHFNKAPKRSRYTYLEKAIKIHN

Row | inhibition of USP1 alone (USP1 alone) | IC50 (caspase-1) [µM] | IC50 (USP7) [µM] | IC50 USP5 (USP5) | SMILES | IC50 for USP7, fold higher than that for USP1/UAF1 (USP7) [fold]
1 | low level of inhibition | > 250 | 13 ± 1 | no inhibition | OCCN1CCN(CCC=C2c3ccccc3Sc3ccc(C(F)(F)F)cc32)CC1 [Flupenthixol, flupenthixol] | –
2 | low level of inhibition | > 250 | 47 ± 1 | No inhibition | O=c1[nH]c2ccccc2n1C1CCN(CCCC(c2ccc(F)cc2)c2ccc(F)cc2)CC1 [Pimozide, pimozide] | 24
3 | low level of inhibition | > 250 | 9 ± 1 | no inhibition | CN1CCN(CCCN2c3ccccc3Sc3ccc(C(F)(F)F)cc32)CC1 [Trifluoperazine, trifluoperazine] | –

Row | SMILES | inhibition of USP1 alone (USP1 alone) | IC50 (caspase-1) [µM] | IC50 (USP7) [µM] | IC50 USP5 (USP5) | IC50 for USP7, fold higher than that for USP1/UAF1 (USP7) [fold]
4 | CC(C)(Sc1ccc(CCN(CCCCC2CCCCC2)C(=O)NC2CCCCC2)cc1)C(=O)O [GW7647] | low level of inhibition | 42 | 44 ± 2 | did not inhibit | 9
